Data published in patent US20260226493A1, “HERBICIDE RESISTANT PLANTS” (SYNGENTA CROP PROTECTION AG, priority 2023, published 2026).

Experiments:
Format in all cases: biochemical
Pantoea ananatis BioA = test: BioA enzyme activity with DMSO or herbicide in vitro; conditions: SAM in substrate mix
Source text: (§1) A pet-24 plasmid containing a DNA sequence encoding each identified variant mutant of BIO3-BIO1 derived from Arabidopsis thaliana from example 5 above, as shown in Table 13 below and as shown in full in SEQ ID NOs: 15 to 155, codon-optimised for expression in E. coli, with an N-terminal 6×His-tag and thrombin cleavage site and under control of a T7 promoter, and was synthesised by Twist Bioscience, in a similar manner to SEQ ID NO:311. These plasmids were then expressed in E. coli BL21 (DE3) bioA with 50 μg/mL kanamycin and 25 μg/mL chloramphenicol selection. Overnight cultures grown at 37° C. were used to inoculate 8×500 mL AIM in shake flasks at a ratio of 1:100. Cultures were grown at 37° C., 200 rpm for 3.5 hours and then overnight at 20° C. Cells were harvested by centrifugation for 30 minutes at 10 000 g. Cells were stored at −80° C. until extraction. 30 g of cell pellet from was thawed in 120 mL of IMAC buffer A (20 mM HEPES pH7.5, 25 mM imidazole, 500 mM sodium chloride, 0.15 mM pyridoxal phosphate, 0.5 mM TCEP, 1× complete Protease Inhibitor Tablet (Roche)). The resuspension was passed through a cell disrupter at 18 000 PSI and centrifuged at 50 000 g for 25 minutes at 4° C. The His-tagged BIO3-BIO1 protein was purified from the extract supernatant on an AKTA avant chromatography system (Cytiva) using a HisTrap FF column and eluted in IMAC buffer B ((20 mM HEPES pH7.5, 500 mM imidazole, 500 mM sodium chloride, 0.15 mM pyridoxal phosphate, 0.5 mM TCEP) followed by SEC using a HiLoad 26/60 Superdex200 column in SEC buffer (25 mM HEPES pH7.5, 150 mM sodium chloride, 0.15 mM pyridoxal phosphate, 0.5 mM TCEP). Protein concentration was measured and calculated using the absorbance at 280 nm. Extracts were diluted 1 in 4 and 10 uL was analysed by SDS PAGE.
(§2) To measure BIO3-BIO1 mutant enzyme activity in the presence of herbicide, herbicides were incubated with 20 μL of enzyme mix (100 mM EPPS pH 8.6, 0.1 mM pyridoxal phosphate, 0.1 mg/mL BSA, 50 nM BIO3-BIO1 enzyme) for 10 minutes at 20° C. in a well of a 96-well half-area black plate, followed by the addition of 20 μL of substrate mix (final concentration of 100 mM EPPS pH 8.6, 0.1 mM pyridoxal phosphate, 0.1 mg/mL BSA, 100 μM spermidine, 20 μM KAPA, 100 mM NaCO3) and further incubation for 75 minutes at 20° C. The reaction was terminated by the addition of 50 μL of derivatisation mix (final concentration of 250 mM borate NaOH pH 9.4, 3.6 mM o-phthalaldehyde, 7 mM β-mercaptoethanol, 17% (v/v) ethanol, 3.6% (v/v) methanol). The fluorescent product produced by the reaction of DAPA with o-phthalaldehyde and 7 mM β-mercaptoethanol was measured at 470 nm after excitation at 410 nm. The percentage inhibition was calculated as the activity in the presence of one of three concentrations of each herbicide compound A to M (note that the compounds labelled as A to M are identified hereinabove in the relevant section of the description) as a percentage of the activity in DMSO (Table 12 and 13). The percentage activity versus WT was also calculated and is shown in Table 13 and 14 (NT indicates mutation not tested in table 13, note that these mutations are tested at different compound concentrations for compounds L, M and C, and the results are shown in table 14).
(§3) Protein of Escherichia coli BioA (SEQ ID NO:159), Pantoea ananatis BioA (SEQ ID NO:167), Streptomyces viridochromogenes BioA (SEQ ID NO:170), Cryptosporidium andersoni BioA (SEQ ID NO:160), Stenotrophomonas maltophilia BioA (SEQ ID NO:171), Chroococcidiopsis BioA (SEQ ID NO:184), Pedobacter hartonius BioA (SEQ ID NO:181), Chitinophaga filiformis BioA (SEQ ID NO:180), Tenacibaculum adriaticum BioA (SEQ ID NO:185) and Bacillus subtilis BioA (SEQ ID NO:166) was prepared using the method in Example 6. BioA enzyme activity in the presence of herbicide or DMSO in vitro for each of the proteins was assayed according to the enzyme assay method in Example 6, except in some reactions spermidine was replaced with 2 mM S-Adenosyl methionine.

[1] = system: Pedobacter hartonius BioA; test: as above; conditions: spermidine in substrate mix
Source text: as §1, §2, §3

[2] = system: Tenacibaculum adriaticum BioA; test: as above; conditions: spermidine in substrate mix
Source text: as §1, §2, §3

[3] = system: Streptomyces viridochromogenes BioA; test: as above; conditions: SAM in substrate mix
Source text: as §1, §2, §3

[4] = system: Stenotrophomonas maltophilia BioA; test: as above; conditions: spermidine in substrate mix
Source text: as §1, §2, §3

Escherichia coli BioA = molecular target: T1, Escherichia coli BioA (Escherichia coli, UniProt P12995); test: as above; conditions: SAM in substrate mix, read-out: % Inhibition relative to DMSO treatment
T1 construct: 6xHis-tag (N); thrombin cleavage site (N); made in house; host or cells: E. coli BL21 (DE3) bioA
T1 sequence (P12995 whole entry): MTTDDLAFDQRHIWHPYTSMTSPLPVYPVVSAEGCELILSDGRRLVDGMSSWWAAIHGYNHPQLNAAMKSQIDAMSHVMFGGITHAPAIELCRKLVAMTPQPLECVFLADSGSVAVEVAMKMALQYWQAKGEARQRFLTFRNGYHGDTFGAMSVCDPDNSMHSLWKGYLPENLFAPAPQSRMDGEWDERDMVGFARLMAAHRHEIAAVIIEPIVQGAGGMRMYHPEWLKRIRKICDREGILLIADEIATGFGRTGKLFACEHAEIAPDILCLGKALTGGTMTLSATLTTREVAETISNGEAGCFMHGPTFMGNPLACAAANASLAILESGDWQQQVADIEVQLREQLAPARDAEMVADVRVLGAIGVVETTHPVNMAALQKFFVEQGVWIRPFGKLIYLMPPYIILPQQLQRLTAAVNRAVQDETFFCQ
Source text: as §1, §2, §3

[5] = system: Ostreococcus tauri BioDA F332A; test: BioDA enzyme activity with DMSO or herbicide in vitro
Source text: as §1, §2
(§4) The activity of various wild-type BioDA and variant enzymes was also tested when treated with DMSO or herbicide in vitro.
(§5) Protein of Schizosaccharomyces japonicus BioDA (SEQ ID NO:13), Nannochloropsis gaditana BioDA (SEQ ID NO:3), Selaginella moellendorffii BioDA (SEQ ID NO:319), Quercus robur BioDA (SEQ ID NOA11), Ostreococcus tauri BioDA (SEQ ID NO:9), and the variants of Ostreococcus tauri BioDA A374D, F332A and P407A (SEQ ID Nos:321-323) was prepared using the method in Example 6. BioDA enzyme activity in the presence of herbicide or DMSO in vitro for each of the proteins was assayed according to the enzyme assay method above. The results are shown in Table 26 provided below in the “TABLES” section.

[6] = system: Ostreococcus tauri BioDA A374D; test: as above
Source text: as §1, §2, §4, §5

[7] = system: Ostreococcus tauri BioDA P407A; test: as above
Source text: as §1, §2, §4, §5

CCOC(=O)c1nn(-c2ccc3c(c2)OC(F)(F)C(F)(F)O3)c2cccc(C(C)=O)c2c1=O [Compound A, ethyl 5-acetyl-4-oxo-1-(2,2,3,3-tetrafluoro-1,4-benzodioxin-6-yl)cinnoline-3-carboxylate] was tested, and the “% Inhibition relative to DMSO treatment” value (Pantoea ananatis BioA; 25 μM) was 7%, the “% Inhibition relative to DMSO treatment” value ([1]; 25 μM) was 6% and the “% Inhibition relative to DMSO treatment” value ([2]; 25 μM) was 14%. The “% Inhibition relative to DMSO treatment” value ([3]; 25 μM) was 0%, the “% Inhibition relative to DMSO treatment” value ([4]; 25 μM) was 0% and the inhibition at 25 µM (Escherichia coli BioA; 25 μM) was 6%.
With CC(O)C(N)CCCCC(=O)O.Cl (stereo not shown) [Compound B, [5-carboxy-1-(1-hydroxyethyl)pentyl]ammonium chloride] the “% Inhibition relative to DMSO treatment” value (Pantoea ananatis BioA; 200 μM) was 15%, the “% Inhibition relative to DMSO treatment” value ([1]; 200 μM) was 96% and the “% Inhibition relative to DMSO treatment” value ([2]; 200 μM) was 18%. The “% Inhibition relative to DMSO treatment” value ([3]; 200 μM) was 0%, the “% Inhibition relative to DMSO treatment” value ([4]; 200 μM) was 50% and the inhibition at 31 µM (Escherichia coli BioA) was 4%. For the same molecule, the inhibition at 200 µM (Escherichia coli BioA) was 9%, the inhibition at 500 µM (Escherichia coli BioA) was 23% and the “% Inhibition relative to DMSO treatment” value ([5]; 200 μM) was 66%. The “% Inhibition relative to DMSO treatment” value ([6]; 200 μM) was 95% and the “% Inhibition relative to DMSO treatment” value ([7]; 200 μM) was 46%.
In the case of CCn1c(C)c(-c2ccc(F)cc2F)c(=O)c(C(=O)O)c1-c1ccc(Cl)c(Cl)c1 [Compound C, 2-(3,4-dichlorophenyl)-5-(2,4-difluorophenyl)-1-ethyl-6-methyl-4-oxo-pyridine-3-carboxylic acid], the “% Inhibition relative to DMSO treatment” value (Pantoea ananatis BioA; 0.5 μM) is reported as 11%, the “% Inhibition relative to DMSO treatment” value ([1]; 0.5 μM) is reported as 0% and the “% Inhibition relative to DMSO treatment” value ([2]; 0.5 μM) is reported as 19%. The “% Inhibition relative to DMSO treatment” value ([3]; 0.5 μM) was 0%, the “% Inhibition relative to DMSO treatment” value ([4]; 0.5 μM) was 0% and the inhibition at 0.5 µM (Escherichia coli BioA) was 8%.
With CCn1c(C)c(-c2cc(OC(F)(F)F)ccc2Cl)c(=O)c(C(=O)O)c1-c1ccc(Cl)c(Cl)c1 [Compound D, 5-[2-chloro-5-(trifluoromethoxy)phenyl]-2-(3,4-dichlorophenyl)-1-ethyl-6-methyl-4-oxo-pyridine-3-carboxylic acid] the “% Inhibition relative to DMSO treatment” value (Pantoea ananatis BioA; 0.5 μM) was 6%, the “% Inhibition relative to DMSO treatment” value ([1]; 0.5 μM) was 7% and the “% Inhibition relative to DMSO treatment” value ([2]; 0.5 μM) was 5%. The “% Inhibition relative to DMSO treatment” value ([3]; 0.5 μM) was 0%, the “% Inhibition relative to DMSO treatment” value ([4]; 0.5 μM) was 76% and the inhibition at 0.5 µM (Escherichia coli BioA) was 6%. For the same molecule, the “% Inhibition relative to DMSO treatment” value ([5]; 0.5 μM) was 0%, the “% Inhibition relative to DMSO treatment” value ([5]; 5 μM) was 7% and the “% Inhibition relative to DMSO treatment” value ([6]; 0.5 μM) was 82%. For the same molecule, the “% Inhibition relative to DMSO treatment” value ([6]; 5 μM) was 95%, the “% Inhibition relative to DMSO treatment” value ([7]; 0.5 μM) was 4% and the “% Inhibition relative to DMSO treatment” value ([7]; 5 μM) was 26%.
For C[C@@H](N)COc1cccc(C(=O)O)n1.Cl.Cl [Compound E, [(1R)-2-(6-carboxypyridin-1-ium-2-yl)oxy-1-methyl-ethyl]ammonium dichloride], the “% Inhibition relative to DMSO treatment” value (Pantoea ananatis BioA; 200 μM) was 15%, the “% Inhibition relative to DMSO treatment” value ([1]; 200 μM) was 80% and the “% Inhibition relative to DMSO treatment” value ([2]; 200 μM) was 16%. For the same molecule, the “% Inhibition relative to DMSO treatment” value ([3]; 200 μM) was 0%, the “% Inhibition relative to DMSO treatment” value ([4]; 200 μM) was 74% and the inhibition at 200 µM (Escherichia coli BioA) was 12%.
CCn1c(Cn2ccc(C(F)(F)F)n2)cc(=O)c(C(=O)O)c1-c1ccc(Cl)c(Cl)c1 [Compound L, 2-(3,4-dichlorophenyl)-1-ethyl-4-oxo-6-[[3-(trifluoromethyl)pyrazol-1-yl]methyl]pyridine-3-carboxylic acid] was tested, and the “% Inhibition relative to DMSO treatment” value (Pantoea ananatis BioA; 0.5 μM) was 9%, the “% Inhibition relative to DMSO treatment” value (Pantoea ananatis BioA; 31 μM) was 0% and the “% Inhibition relative to DMSO treatment” value (Pantoea ananatis BioA; 500 μM) was 23%. For the same molecule, the “% Inhibition relative to DMSO treatment” value ([1]; 0.5 μM) was 2%, the “% Inhibition relative to DMSO treatment” value ([2]; 0.5 μM) was 16% and the “% Inhibition relative to DMSO treatment” value ([3]; 0.5 μM) was 0%. For the same molecule, the “% Inhibition relative to DMSO treatment” value ([3]; 31 μM) was 16%, the “% Inhibition relative to DMSO treatment” value ([3]; 500 μM) was 34% and the “% Inhibition relative to DMSO treatment” value ([4]; 0.5 μM) was 0%. For the same molecule, the “% Inhibition relative to DMSO treatment” value ([4]; 31 μM) was 0%, the “% Inhibition relative to DMSO treatment” value ([4]; 500 μM) was 16% and the inhibition at 0.5 µM (Escherichia coli BioA) was 4%. For the same molecule, the inhibition at 31 µM (Escherichia coli BioA) was 8%, the inhibition at 500 µM (Escherichia coli BioA) was 35% and the “% Inhibition relative to DMSO treatment” value ([5]; 31 μM) was 4%. For the same molecule, the “% Inhibition relative to DMSO treatment” value ([5]; 500 μM) was 53%, the “% Inhibition relative to DMSO treatment” value ([6]; 31 μM) was 98% and the “% Inhibition relative to DMSO treatment” value ([6]; 500 μM) was 93%. For the same molecule, the “% Inhibition relative to DMSO treatment” value ([7]; 31 μM) was 58% and the “% Inhibition relative to DMSO treatment” value ([7]; 500 μM) was 94%.
CCn1c(-c2ccc(Cl)c(Cl)c2)c(C(=O)O)c(=O)c2cc(F)ccc21 [Compound M, 2-(3,4-dichlorophenyl)-1-ethyl-6-fluoro-4-oxo-quinoline-3-carboxylic acid] was tested, and the “% Inhibition relative to DMSO treatment” value (Pantoea ananatis BioA; 0.5 μM) was 11%, the “% Inhibition relative to DMSO treatment” value ([1]; 0.5 μM) was 0% and the “% Inhibition relative to DMSO treatment” value ([2]; 0.5 μM) was 13%. The “% Inhibition relative to DMSO treatment” value ([3]; 0.5 μM) was 0%, the “% Inhibition relative to DMSO treatment” value ([4]; 0.5 μM) was 1% and the inhibition at 0.5 µM (Escherichia coli BioA) was 0%. For the same molecule, the “% Inhibition relative to DMSO treatment” value ([5]; 31 μM) was 7%, the “% Inhibition relative to DMSO treatment” value ([5]; 500 μM) was 46% and the “% Inhibition relative to DMSO treatment” value ([6]; 31 μM) was 94%. The “% Inhibition relative to DMSO treatment” value ([6]; 500 μM) was 93%, the “% Inhibition relative to DMSO treatment” value ([7]; 31 μM) was 37% and the “% Inhibition relative to DMSO treatment” value ([7]; 500 μM) was 92%.
